Patent US20140323521A1, “PHARMACEUTICAL COMPOSITIONS AND ADMINISTRATIONS THEREOF” (Vertex Pharmaceuticals Incorporated, priority 2011, published 2014)

Columns and labels:
Assay in all cases: FRT cell Ussing chamber chloride transport assay
Type in all cases: cell-based
human CFTR mutant S549R = biological target: T1, human CFTR mutant S549R (Homo sapiens, UniProt P13569, S549R); conditions: FRT cells expressing S549R CFTR
T1 construct: expressed in transfected cells; host or cells: Fisher rat thyroid (FRT) FlpIn cells, pcDNA5/FRT
Excerpt: (§1) DNA cloning: Wild-type CFTR coding region was inserted into pcDNA5/FRT (Invitrogen, San Diego, Calif.) between EcoRV and ApaI.
(§2) Single CFTR gene mutations were introduced into the wild-type CFTR coding sequence by using QuickChange XL site-directed mutagenesis kit (Stratagene, Cambridge, UK). The CFTR coding region as well as its promoter sequence and 3′ untranslated sequence was fully sequenced to confirm the mutagenesis reaction.
(§3) The CFTR gene was stably expressed in Fisher rat thyroid (FRT) cells through FlpIn system. The FRT-FlpIn host cell line was generated by stably transfecting FRT cells with pFRT/lacZeo. The single integration of a FRT site was confirmed by Southern blot. After the mutant CFTR DNA was transfected into the FRT-FlpIn host cell line, the cells were incubate at 37° C. in Coon's modified Ham's F12 containing 10% FBS, 1% Pen/Strep, and 36 ml of Na-Bicarbonate for up to 8 passages under hygromycin selection (200 ug/ml).
(§4) All cells were grown on Costar® Snapwell™ cell culture inserts at maintained at 37° C. prior to recording. The cell culture inserts were mounted into an Ussing chamber (VCC MC8; Physiologic Instruments, Inc., San Diego, Calif.) to record ISC in the voltage-clamp mode (Vhold=0 mV). For FRT cells, the basolateral membrane was permeabilized with 360 μg/ml Nystatin and a basolateral to apical Cl− gradient was established. The basolateral bath solution contained (in mM); 135 NaCl, 1.2 CaCl2, 1.2 MgCl2, 2.4 K2HPO4, 0.6 KHPO4, 10 N-2-hydroxyethylpiperazine-N′-2-ethanesulfonic acid (HEPES), and 10 dextrose (titrated to pH 7.4 with NaOH). The apical NaCl was replaced by equimolar Na+ gluconate (titrated to pH 7.4 with NaOH). For HBE cells, the ISC was measured in the presence of a basolateral to apical Cl− gradient. The normal Cl− solution contained (in mM) 145 NaCl, 3.3 K2HPO4, 1.2 MgCl2, 1.2 CaCl2, 10 Glucose, 10 HEPES (pH adjusted to 7.35 with NaOH) and the low Cl− solution contained (in mM) 145 NaGluconate, 1.2 MgCl2, 1.2 CaCl2, 10 glucose, 10 HEPES (pH adjusted to 7.35 with NaOH). All recordings were digitally acquired using a Acquire and Analyze software (version 2; Physiologic Instruments, Inc. San Diego, Calif.).
(§5) The 10 μM forskolin stimulated response in FRT cell expressing different mutant CFTR forms or in HBE cells isolated from CF patients was normalized to the 10 μM forskolin-stimulated response in FRT cells expressing wild-type CFTR or in HBE isolated from non-CF individuals and expressed as % wild-type CFTR. In HBE, amiloride was added prior to forskolin application to block the epithelial Na+ channel.

human CFTR mutant S1255P = biological target: T2, human CFTR mutant S1255P (Homo sapiens, UniProt P13569, S1255P); conditions: FRT cells expressing S1255P CFTR
T2 construct: expressed in transfected cells; host or cells: Fisher rat thyroid (FRT) FlpIn cells, pcDNA5/FRT
Excerpt: as §1, §2, §3, §4, §5

human CFTR mutant S1251N = biological target: T3, human CFTR mutant S1251N (Homo sapiens, UniProt P13569, S1251N); conditions: FRT cells expressing S1251N CFTR
T3 construct: expressed in transfected cells; host or cells: Fisher rat thyroid (FRT) FlpIn cells, pcDNA5/FRT
Excerpt: as §1, §2, §3, §4, §5

human CFTR mutant S549N = biological target: T4, human CFTR mutant S549N (Homo sapiens, UniProt P13569, S549N); conditions: FRT cells expressing S549N CFTR
T4 construct: expressed in transfected cells; host or cells: Fisher rat thyroid (FRT) FlpIn cells, pcDNA5/FRT
Excerpt: as §1, §2, §3, §4, §5

human CFTR mutant G1244E = biological target: T5, human CFTR mutant G1244E (Homo sapiens, UniProt P13569, G1244E); conditions: FRT cells expressing G1244E CFTR
T5 construct: expressed in transfected cells; host or cells: Fisher rat thyroid (FRT) FlpIn cells, pcDNA5/FRT
Excerpt: as §1, §2, §3, §4, §5

human CFTR mutant G1349D = biological target: T6, human CFTR mutant G1349D (Homo sapiens, UniProt P13569, G1349D); conditions: FRT cells expressing G1349D CFTR
T6 construct: expressed in transfected cells; host or cells: Fisher rat thyroid (FRT) FlpIn cells, pcDNA5/FRT
Excerpt: as §1, §2, §3, §4, §5

human CFTR mutant G178R = biological target: T7, human CFTR mutant G178R (Homo sapiens, UniProt P13569, G178R); conditions: FRT cells expressing G178R CFTR
T7 construct: expressed in transfected cells; host or cells: Fisher rat thyroid (FRT) FlpIn cells, pcDNA5/FRT
Excerpt: as §1, §2, §3, §4, §5

human CFTR mutant G551S = biological target: T8, human CFTR mutant G551S (Homo sapiens, UniProt P13569, G551S); conditions: FRT cells expressing G551S CFTR
T8 construct: expressed in transfected cells; host or cells: Fisher rat thyroid (FRT) FlpIn cells, pcDNA5/FRT
Excerpt: as §1, §2, §3, §4, §5

human CFTR mutant G970R = biological target: T9, human CFTR mutant G970R (Homo sapiens, UniProt P13569, G970R); conditions: FRT cells expressing G970R CFTR
T9 construct: expressed in transfected cells; host or cells: Fisher rat thyroid (FRT) FlpIn cells, pcDNA5/FRT
Excerpt: as §1, §2, §3, §4, §5

Measured: increase in chloride transport, relative to baseline chloride transport

T8 sequence (P13569 whole entry G551S): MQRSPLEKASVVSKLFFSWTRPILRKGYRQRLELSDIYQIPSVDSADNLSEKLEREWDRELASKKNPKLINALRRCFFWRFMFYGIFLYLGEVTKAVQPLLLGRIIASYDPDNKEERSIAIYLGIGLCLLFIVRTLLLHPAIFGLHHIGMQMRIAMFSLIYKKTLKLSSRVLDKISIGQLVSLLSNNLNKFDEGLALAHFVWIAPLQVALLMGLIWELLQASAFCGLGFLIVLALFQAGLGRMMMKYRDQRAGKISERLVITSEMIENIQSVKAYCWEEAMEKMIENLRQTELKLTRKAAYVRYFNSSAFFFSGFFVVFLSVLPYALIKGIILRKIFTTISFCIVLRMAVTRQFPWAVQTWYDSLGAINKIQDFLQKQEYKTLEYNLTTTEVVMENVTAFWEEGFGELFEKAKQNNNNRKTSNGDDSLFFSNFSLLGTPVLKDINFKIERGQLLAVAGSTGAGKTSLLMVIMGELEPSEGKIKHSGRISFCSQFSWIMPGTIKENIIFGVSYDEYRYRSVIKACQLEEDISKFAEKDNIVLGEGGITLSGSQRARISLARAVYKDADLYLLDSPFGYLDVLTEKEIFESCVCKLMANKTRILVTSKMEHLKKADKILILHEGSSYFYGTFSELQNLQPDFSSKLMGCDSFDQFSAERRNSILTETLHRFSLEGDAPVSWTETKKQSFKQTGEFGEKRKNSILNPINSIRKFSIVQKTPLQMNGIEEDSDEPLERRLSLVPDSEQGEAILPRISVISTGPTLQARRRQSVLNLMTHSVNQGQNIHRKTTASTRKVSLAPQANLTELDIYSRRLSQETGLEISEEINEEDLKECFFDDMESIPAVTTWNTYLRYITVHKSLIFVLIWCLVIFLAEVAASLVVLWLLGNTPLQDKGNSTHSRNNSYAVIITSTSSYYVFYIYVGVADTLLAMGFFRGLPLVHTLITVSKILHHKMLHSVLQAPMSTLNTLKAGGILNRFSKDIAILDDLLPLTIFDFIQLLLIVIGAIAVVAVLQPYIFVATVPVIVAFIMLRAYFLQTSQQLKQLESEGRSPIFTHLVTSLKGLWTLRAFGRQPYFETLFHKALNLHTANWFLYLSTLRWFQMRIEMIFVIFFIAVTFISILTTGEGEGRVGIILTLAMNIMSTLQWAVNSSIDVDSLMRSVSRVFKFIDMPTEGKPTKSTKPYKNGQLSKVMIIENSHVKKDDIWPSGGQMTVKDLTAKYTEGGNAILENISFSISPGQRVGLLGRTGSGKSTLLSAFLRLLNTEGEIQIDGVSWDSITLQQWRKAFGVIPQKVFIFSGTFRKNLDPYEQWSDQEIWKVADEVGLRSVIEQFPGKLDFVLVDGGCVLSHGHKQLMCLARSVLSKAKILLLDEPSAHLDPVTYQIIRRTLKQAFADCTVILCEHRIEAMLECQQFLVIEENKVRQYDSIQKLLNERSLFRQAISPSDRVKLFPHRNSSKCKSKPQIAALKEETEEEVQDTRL
T9 sequence (P13569 whole entry G970R): as the sequence (P13569 whole entry G551S) above, with S551G, G970R counted along it
T2 sequence (P13569 whole entry S1255P): as the sequence (P13569 whole entry G551S) above, with S551G, S1255P counted along it
T4 sequence (P13569 whole entry S549N): as the sequence (P13569 whole entry G551S) above, with S549N, S551G counted along it
T3 sequence (P13569 whole entry S1251N): as the sequence (P13569 whole entry G551S) above, with S551G, S1251N counted along it
T1 sequence (P13569 whole entry S549R): as the sequence (P13569 whole entry G551S) above, with S549R, S551G counted along it
T6 sequence (P13569 whole entry G1349D): as the sequence (P13569 whole entry G551S) above, with S551G, G1349D counted along it
T5 sequence (P13569 whole entry G1244E): as the sequence (P13569 whole entry G551S) above, with S551G, G1244E counted along it
T7 sequence (P13569 whole entry G178R): as the sequence (P13569 whole entry G551S) above, with G178R, S551G counted along it

CC(C)(C)c1cc(C(C)(C)C)c(NC(=O)c2c[nH]c3ccccc3c2=O)cc1O [Compound 1, N-[2,4-bis(1,1-dimethylethyl)-5-hydroxyphenyl]-1,4-dihydro-4-oxoquinoline-3-carboxamide]
greater than 10 fold: all assays above
